Consider eleven molecules from ChEMBL document CHEMBL1201862, “PubChem BioAssay data set” (2004).

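Briefly, cells in 96-well plates were exposed to five compound concentrations for 48 h, and endpoints were estimated by linear interpolation. GI50 marks 50% less growth.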 Activity calls are given as the source filed them. Rule as the data show it: active = GI50 up to about 1.1 µM and inactive = higher.

Among the test systems are ACHN; CCRF-CEM; DLD-1; HCT-15; HOP-18; KM12; LXFL 529; M19-MEL; Malme-3M; OVCAR-4; OVCAR-5; SR; SW-620; TK-10; XF498; NCI-H522; BT-549; DU-145; MDA-N; PC-3.
Common to all, as to assay: NCI-60 cell line screen, 48 h

Regarding `O=C1/C(=C/c2ccc(Cl)cc2)CCC1CCN1CCOCC1` (centres undefined), the GI50 was 60.4 µM (inactive) in the test with ACHN; 29 µM (inactive) in the test on CCRF-CEM; 61 µM (inactive) in the test with DLD-1; 36.3 µM with HCT-15; > 100 µM (inactive) with HOP-18; 40.8 µM (inactive) in the test on KM12. Besides, the GI50 with LXFL 529 was 56.4 µM (inactive); in the test on M19-MEL, 72.9 µM (inactive); in the test on Malme-3M, > 100 µM (inactive); with OVCAR-4 it was 37.8 µM (inactive); in the test with OVCAR-5 it was > 100 µM (inactive); in the test on SR, 26.1 µM (inactive). Further, the results for the GI50 in the test with SW-620, in the test on TK-10 and with XF498 were > 100 µM (inactive), > 100 µM (inactive) and 56.6 µM (inactive), respectively.
Consider `Cc1cc(C)c(C(=O)OC(c2ccccc2)C(c2ccccc2)N2CCOCC2)c(C)c1` (centres undefined), for which the GI50 in the test with ACHN was > 100 µM (inactive); in the test on CCRF-CEM, > 100 µM (inactive); with DLD-1 it was > 100 µM (inactive); with HCT-15, greater than 100 µM; in the test on HOP-18, > 100 µM (inactive); in the test with KM12, > 100 µM (inactive). Moreover, the GI50 with LXFL 529, in the test on M19-MEL, with Malme-3M, in the test with NCI-H522, in the test on SW-620 and with TK-10 was > 100 µM (inactive) throughout. Moreover, in the test with XF498, the GI50 was > 100 µM (inactive).
Regarding `COc1ccc2c(c1)c(Cc1c(C)n(C)c3ccc(OC)cc13)c(C)n2C`, the GI50 in the test with ACHN was > 100 µM (inactive); with CCRF-CEM, > 100 µM (inactive); in the test with DLD-1, > 100 µM (inactive); in the test with HCT-15 it was greater than 100 µM; in the test with HOP-18 it was > 100 µM (inactive); in the test with KM12, > 100 µM (inactive). In addition, the GI50 with LXFL 529 was > 100 µM (inactive); in the test on M19-MEL it was > 100 µM (inactive); in the test with Malme-3M, > 100 µM (inactive); with NCI-H522, 34 µM (inactive); in the test on OVCAR-4, > 100 µM (inactive); in the test with OVCAR-5, > 100 µM (inactive). In addition, the GI50 with SR, in the test on SW-620, in the test with TK-10 and in the test with XF498 was > 100 µM (inactive) in each case.
`Cc1cc(=O)n(-c2cc3cccccc-3n2)[nH]1`: the GI50 is 5.87 µM (inactive) with ACHN; 4.13 µM (inactive) in the test with CCRF-CEM; 5.61 µM (inactive) in the test with DLD-1; 5.07 µM in the test on HCT-15; 3.95 µM (inactive) in the test on HOP-18; 5.38 µM (inactive) in the test on KM12. For the same molecule, the GI50 was 3.79 µM (inactive) in the test with LXFL 529; 3.95 µM (inactive) in the test on M19-MEL; 3.76 µM (inactive) in the test with Malme-3M; 2.68 µM (inactive) in the test on NCI-H522; 15.5 µM (inactive) with OVCAR-5; 3.73 µM (inactive) with SW-620. Moreover, the GI50 in the test with TK-10 was 7.31 µM (inactive); with XF498, 4.03 µM (inactive).
`CCCC/C=C1\CCC(CN2CCCCC2)C1=O` (centres undefined): the GI50 in the test on ACHN is 29.3 µM (inactive); in the test with BT-549, > 100 µM (inactive); with CCRF-CEM, 7.73 µM (inactive); in the test with DLD-1, 1.76 µM (inactive); in the test with DU-145, > 100 µM (inactive); in the test with HCT-15, 9.06 µM. The GI50 in the test on HOP-18 is 8.73 µM (inactive); in the test with LXFL 529 it was 1.7 µM (inactive); in the test on M19-MEL it was 8.36 µM (inactive); in the test with MDA-N it was > 100 µM (inactive); in the test with Malme-3M it was 8.55 µM (inactive); in the test on OVCAR-4 it was 30.5 µM (inactive). Moreover, the GI50 in the test on OVCAR-5 is 34.7 µM (inactive); in the test on PC-3 it was > 100 µM (inactive); in the test on SW-620, 7.91 µM (inactive); in the test on TK-10, 12.4 µM (inactive); in the test on XF498, 2.3 µM (inactive).
For the molecule `CN1CCc2c1nc(-c1ccc(Cl)cc1)c1c2N(C)CC1`, the GI50 in the test on ACHN was 6.78 µM (inactive); with CCRF-CEM it was 12 µM (inactive); in the test with DLD-1, 7.66 µM (inactive); in the test with HCT-15 it was 7.06 µM; in the test with HOP-18 it was < 0.01 µM (active); with KM12, 3.7 µM (inactive). In addition, the GI50 was 20.1 µM (inactive) in the test on LXFL 529; 9.14 µM (inactive) in the test with M19-MEL; > 100 µM (inactive) in the test on Malme-3M; 28.4 µM (inactive) with OVCAR-4; 24.1 µM (inactive) with OVCAR-5; 24.4 µM (inactive) with SW-620. Moreover, the GI50 was 29.2 µM (inactive) in the test on TK-10 and 10.1 µM (inactive) in the test with XF498.
With `CC[C@@H](C)[C@@H]1NC(=O)C(C(C)=O)=C1O`, the GI50 in the test on ACHN was 16.5 µM (inactive); with CCRF-CEM it was 5.19 µM (inactive); in the test with DLD-1, 20.9 µM (inactive); in the test with HCT-15, 20.2 µM; with HOP-18 it was 12.9 µM (inactive); in the test on KM12, 15.6 µM (inactive). For the same molecule, the GI50 with LXFL 529 was 20.7 µM (inactive); in the test on M19-MEL it was 11.9 µM (inactive); with Malme-3M it was 25.1 µM (inactive); with NCI-H522, 20.1 µM (inactive); in the test on OVCAR-4 it was 27.1 µM (inactive); in the test on OVCAR-5 it was 40.7 µM (inactive). The GI50 in the test on SR is 14.9 µM (inactive); with SW-620, 24.2 µM (inactive); in the test with TK-10 it was 40.6 µM (inactive); in the test on XF498, 80.9 µM (inactive).
With `COc1cccc2c1C(=O)c1c(O)c3c(c(O)c1C2=O)C[C@@](O)(C(=O)CO)CC3OC1CC(NCCOCC(OC(C)=O)OC(C)=O)C(O)C(C)O1` (some centres undefined), the GI50 with ACHN is < 0.01 µM (active); in the test with CCRF-CEM, 0.00766 µM (active); with DLD-1 it was 0.01 µM (active); in the test with HCT-15 it was less than 0.01 µM; in the test with HOP-18, < 0.01 µM (active); with KM12, < 0.01 µM (active). Besides, the GI50 in the test on LXFL 529, with M19-MEL, in the test with Malme-3M, in the test with OVCAR-4, in the test on OVCAR-5 and in the test on SR was < 0.01 µM (active) throughout. For the same molecule, the GI50 with SW-620, in the test with TK-10 and in the test with XF498 was < 0.01 µM (active) in each case.
Regarding `COC(=O)[C@@]1(C(C)CC(=O)O)CCCCC1=O` (some centres undefined), the GI50 in the test with ACHN is > 100 µM (inactive); in the test with CCRF-CEM, > 100 µM (inactive); with DLD-1 it was > 100 µM (inactive); in the test on HCT-15, 42.6 µM; in the test on HOP-18, > 100 µM (inactive); in the test on KM12 it was > 100 µM (inactive). Also, the GI50 with LXFL 529, with M19-MEL, in the test on Malme-3M, in the test on NCI-H522, in the test with OVCAR-4 and in the test with OVCAR-5 was > 100 µM (inactive) in each case. Also, the GI50 with SR is 37.8 µM (inactive); in the test with TK-10, > 100 µM (inactive); in the test with XF498, > 100 µM (inactive).
Consider `O=C(NN1C(=O)C(Cl)C1c1c(O)ccc2ccccc12)c1ccccc1O` (centres undefined), for which the GI50 in the test with ACHN was > 100 µM (inactive); in the test with CCRF-CEM it was > 100 µM (inactive); with DLD-1, > 100 µM (inactive); with HCT-15 it was greater than 100 µM; with HOP-18 it was > 100 µM (inactive); with KM12 it was > 100 µM (inactive). Besides, the GI50 in the test with LXFL 529, in the test on M19-MEL, in the test on Malme-3M, with NCI-H522, in the test with OVCAR-4 and with TK-10 was > 100 µM (inactive) in each case. Further, the GI50 in the test with XF498 is > 100 µM (inactive).
Take `Cn1cnc([N+](=O)[O-])c1Sc1nc2ccccc2o1`: the GI50 in the test with ACHN is 11.5 µM (inactive); in the test on CCRF-CEM, 3.03 µM (inactive); in the test on DLD-1 it was 4.13 µM (inactive); in the test with HCT-15 it was 2.77 µM; in the test on HOP-18 it was 0.389 µM (active); with KM12, 5.18 µM (inactive). The GI50 in the test with LXFL 529 is 3.08 µM (inactive); with M19-MEL, 8.43 µM (inactive); in the test with Malme-3M it was 5.41 µM (inactive); in the test with NCI-H522 it was 1.8 µM (inactive); in the test with OVCAR-4, 4.35 µM (inactive); with OVCAR-5, 14.2 µM (inactive). Moreover, the GI50 in the test on SR was 2.49 µM (inactive); in the test on SW-620, 3.72 µM (inactive); in the test with TK-10, 10.5 µM (inactive); with XF498, 6.44 µM (inactive).
